Test [1] deals with GluE1αA wildtype. It is filed as cell-based, Trichoplax adhaerens.
For test [2], the target named is T1, GluE1αA S642Q (Trichoplax adhaerens, UniProt B3SAW0, S167Q).
T1 sequence (B3SAW0 1-341 S167Q): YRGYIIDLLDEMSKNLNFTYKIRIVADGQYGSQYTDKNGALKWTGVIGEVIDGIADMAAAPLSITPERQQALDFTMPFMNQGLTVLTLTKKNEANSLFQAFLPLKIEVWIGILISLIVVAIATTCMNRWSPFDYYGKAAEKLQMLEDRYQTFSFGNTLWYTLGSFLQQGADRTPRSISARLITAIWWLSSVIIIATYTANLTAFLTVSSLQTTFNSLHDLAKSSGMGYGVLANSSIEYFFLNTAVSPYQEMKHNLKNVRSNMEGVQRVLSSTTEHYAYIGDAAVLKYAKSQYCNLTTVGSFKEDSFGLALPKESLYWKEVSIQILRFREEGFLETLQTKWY
It is filed as cell-based.

Test [3] has as its target T2, GluE1αA S642N (Trichoplax adhaerens, UniProt B3SAW0, S167N).
T2 sequence (B3SAW0 1-341 S167N): T1 sequence (B3SAW0 1-341 S167Q) with Q167N
It is filed as cell-based.

In test [4] the test system is GluE1αA S642R. Format: cell-based, Trichoplax adhaerens.
In test [5] the test system is GluE1αA D646A. It is filed as cell-based, Trichoplax adhaerens.
For test [6], the system named is GluE1αA S642Q plus D646A. It is filed as cell-based, Trichoplax adhaerens.
The test system of test [7] is GluE1αA wildtype. It is filed as cell-based, Trichoplax adhaerens. This is another data set of the same source.
Test [8] concerns the target T1, GluE1αA S642Q. It is filed as cell-based. This is another data set of the same source.
Test [9] has as its target T2, GluE1αA S642N. It is filed as cell-based. The source holds these as a separate data set.
Test [10] has as its system GluE1αA S642R. Format: cell-based, Trichoplax adhaerens. This is another data set of the same source.
In test [11] the test system is GluE1αA D646A. Format: cell-based, Trichoplax adhaerens. This is another data set of the same source.
The test system of test [12] is GluE1αA S642Q plus D646A. It is filed as cell-based, Trichoplax adhaerens. The source holds these as a separate data set.

Positions count from the first letter of the chain named. “And” between values parts separate entries of the source, which are not always exact repeats. Equal values may be shown once.

For `[Cs+]` [Cs], the “Avg of recordings (Figure S7c, G-V, normalized)” value in [1] was 0.58 and 0.69 and 0.78 and 0.80 and 1.00 and 0.93 and 0.77 and 0.60. Further, the pCs/pNa is 0.95 and 0.96 and 0.99 and 0.93 and 0.92 in test [1]; 0.77 and 1.08 and 1.06 and 1.15 and 1.01 and 1.25 in test [2]; 1.10 and 1.06 and 1.08 and 0.97 and 0.98 and 0.82 in test [3]; 0.92 and 0.78 and 0.83 and 0.84 and 0.81 and 0.79 and 0.82 in test [4]; 1.01 and 0.96 and 0.98 and 0.97 and 1.08 in [5]; 1.15 and 1.09 and 1.10 and 1.24 and 1.08 and 1.02 in [6]. Further, the pCs/pCa in [7] is 1.08 and 0.98 and 1.16 and 1.36 and 1.19 and 1.14; in test [8] it was 8.99 and 7.25 and 7.15 and 8.09 and 7.84 and 7.74 and 7.89; in [9], 5.26 and 5.24 and 5.82 and 3.13 and 4.33 and 4.04; in test [10] it was 2.85 and 2.43 and 1.93 and 2.69 and 2.80 and 3.78; in [11] it was 1.12 and 1.10 and 0.98 and 1.02 and 1.05 and 0.97; in test [12], 7.48 and 6.98 and 7.28 and 7.47 and 4.49 and 4.01 and 6.97 and 6.40. Besides, the “Cs vs Ca, Avg (Figure S8e, normalized G-V)” value in test [11] was 1.00 and 0.97 and 0.90 and 0.81 and 0.79 and 0.75 and 0.88; in [12], 1.00 and 1.03 and 0.98 and 1.02 and 1.15 and 1.27 and 1.40 and 1.41.
